Patent US20210029994A1, “HERBICIDE COMPOSITIONS AND METHODS OF CONTROLLING GROWTH OF PLANTS” (priority 2019, published 2021)
Entries after “also recorded” stand apart in the source; their conditions may differ.

Key:
Type in all cases: in vivo
[1] = tested on: Amaranthus powelli (Powell's Amaranth), Group 2,5 resistant; assay: Post-emergent treatment of potted weeds with herbicide composition, 7 day growth (FIG. 1); details: 1% Juglone, weeds about 0-2 weeks post emergent (about 2-5 cm), 7 days after treatment
Protocol: (§1) Referring now to the figures, pictures of various weeds are shown herein after being treated with an herbicide composition described herein. In all of the pictures provided herein, weeds that were about 0-2 weeks post emergent (e.g. about 2-5 cm in height) were treated with an herbicide composition having a 1% Juglone concentration. In most cases, plant damage was observed within two hours of treatment of the weeds with the herbicide composition.
Specifically, FIG. 1 is a picture of three pots showing 7 day growth of Amaranthus powelli (Powell's Amaranth), Group 2,5 resistant, when left untreated, treated with 1% Juglone, and treated with a control (i.e. solvent/surfactant, no active ingredient), respectively.

[2] = tested on: Amaranthus rudis JD Sauer (Waterhemp), Group 2,4,5,14,9,27 Resistant; assay: Post-emergent treatment of potted weeds with herbicide composition, 7 day growth (FIG. 2); details: 1% Juglone; weeds about 0-2 weeks post emergent (about 2-5 cm); 7 days after treatment
Protocol: as §1
FIG. 2 is a picture of three pots showing 7 day growth of Amaranthus rudis JD Sauer (Waterhemp), Group 2,4,5,14,9,27 Resistant, when left untreated, treated with 1% Juglone, and treated with a control (i.e. solvent/surfactant, no active ingredient), respectively.

[3] = tested on: Amaranthus rudis JD Sauer (Waterhemp), non-resistant; assay: Post-emergent treatment of potted weeds with herbicide composition, 7 day growth (FIG. 3); details: 1% Juglone; weeds about 0-2 weeks post emergent (about 2-5 cm); 7 days after treatment
Protocol: as §1
FIG. 3 is a picture of three pots showing 7 day growth of Amaranthus rudis JD Sauer (Waterhemp), non-resistant, when left untreated, treated with 1% Juglone, and treated with a control (i.e. solvent/surfactant, no active ingredient), respectively.

[4] = tested on: Chenopodium album L. (lamb's quarters), Group 2,5 Resistant; assay: Post-emergent treatment of potted weeds with herbicide composition, 7 day growth (FIG. 4); details: 1% Juglone; weeds about 0-2 weeks post emergent (about 2-5 cm); 7 days after treatment
Protocol: as §1
FIG. 4 is a picture of three pots showing 7 day growth of Chenopodium album L. (lamb's quarters), Group 2,5 Resistant, when left untreated, treated with 1% Juglone, and treated with a control (i.e. solvent/surfactant, no active ingredient), respectively.

[5] = tested on: Amaranthus retroflexus L. (pigweed), Group 2,5 Resistant; assay: Post-emergent treatment of potted weeds with herbicide composition, 7 day growth (FIG. 5); details: 1% Juglone; weeds about 0-2 weeks post emergent (about 2-5 cm); 7 days after treatment
Protocol: as §1
FIG. 5 is a picture of two pots showing 7 day growth of Amaranthus retroflexus L. (pigweed), Group 2,5 Resistant, when left untreated and treated with 1% Juglone, respectively.

[6] = tested on: Solanum ptycanthum (eastern black nightshade), Group 2 Resistant; assay: Post-emergent treatment of potted weeds with herbicide composition, 7 day growth (FIG. 6); details: 1% Juglone; weeds about 0-2 weeks post emergent (about 2-5 cm); 7 days after treatment
Protocol: as §1
FIG. 6 is a picture of two pots showing 7 day growth of Solanum ptycanthum (eastern black nightshade), Group 2 Resistant, when left untreated and treated with […] Juglone, respectively.

[7] = tested on: Amaranthus hybridus L. (smooth pigweed), Group 2,5 Resistant; assay: Post-emergent treatment of potted weeds with herbicide composition, 7 day growth (FIG. 7); details: 1% Juglone; weeds about 0-2 weeks post emergent (about 2-5 cm); 7 days after treatment
Protocol: as §1
FIG. 7 is a picture of three pots showing 7 day growth of Amaranthus hybridus L. (smooth pigweed), Group 2,5 Resistant, when left untreated, treated with 1% Juglone, and treated with a control (i.e. solvent/surfactant, no active ingredient), respectively.

weeds = assay: Onset of plant damage after treatment of weeds with herbicide composition; details: 1% Juglone concentration; weeds about 0-2 weeks post emergent; in most cases
Protocol: as §1

O=C1C=CC(=O)c2c(O)cccc21 [Juglone, 5-hydroxy-1,4-naphthalenedione]
control of growth of Amaranthus powelli [1]: effectively controlled the growth | control of growth of Amaranthus rudis JD Sauer (Waterhemp), Group 2,4,5,14,9,27 Resistant [2]: effectively controlled the growth; also recorded: did control the growth | control of growth of Amaranthus rudis JD Sauer (Waterhemp), non-resistant [3]: did not effectively control the growth | control of growth of Chenopodium album L. (lamb's quarters), Group 2,5 Resistant [4]: effectively controlled the growth | control of growth of Amaranthus retroflexus L. (pigweed), Group 2,5 Resistant [5]: effectively controlled the growth | control of growth of Solanum ptycanthum (eastern black nightshade), Group 2 Resistant [6]: effectively controlled the growth | control of growth of Amaranthus hybridus L. (smooth pigweed), Group 2,5 Resistant [7]: effectively controlled the growth | time to observed plant damage after treatment (weeds): two
